Measured values published in patent US3984415A, “1-Nitrophenylpyrido [2,3-d] pyrimidine-2,4(1H,3H)-diones” (Hisamitsu Pharmaceutical Co., Inc., priority 1973, dated 1976).
Where two headings read alike, the source gives them in different places.

Columns and labels:
[1] = Anti-inflammatory effect (carrageenin edema of hind paw); type: in vivo, Wistar-strain male rats; design: anti-inflammatory effect (inhibition percentage of carrageenin edema): scale not given here; conditions: for inhibition in vivo at 50 mg/kg / inhibition in vivo at 100 mg/kg / inhibition in vivo at 10 mg/kg / inhibition in vivo at 20 mg/kg: Rattus norvegicus, po, read-out: anti-inflammatory effect (inhibition percentage of carrageenin edema)
Description: 2. Anti-inflammatory effect
A group of five Wistar-strain male rats (100-150 g) were orally administered with each test compound suspended in 0.5 % tragacanth-saline solution. After 30 minutes 0.5 %-1.0 % carrageenin suspended in the water for injection was injected subcutaneously to a hind paw. After 3 hours the carrageenin edema was measured by volume and the inhibition percentage was determined with respect to the results for the control animals. The inhibition percentages were shown with the notations as follows: […]

[2] = Analgetic effect (acetic acid writhing syndrome); type: in vivo, dd-strain male mice; conditions: orally, mice; for ED50: Mus musculus, po, acetic acid writhing
Description: Each test compound suspended in 0.5 % tragacanth-saline solution was orally administered to dd-strain male mice (18-20 g). After one hour 0.6% acetic acid solution was intraperitoneally injected in a volume of 0.1 ml/10 g.

dd-strain male mice = conditions: 72 hours
Description: The lethal dose was estimated from the death of animals 72 hours after administration.

[3] = dose 50 mg/kg, orally, rats, 3 hours
[4] = dose 10 mg/kg, orally, rats, 3 hours

Compound | inhibition in vivo at 50 mg/kg [1, 3] [%] | inhibition in vivo at 100 mg/kg ([1]; orally, rats, 3 hours) [%] | ED50 [2] [mg/kg] | acute toxicity (lethal dose) (dd-strain male mice; i.p.) [mg/kg] | acute toxicity (lethal dose) (dd-strain male mice; p.o.) [mg/kg] | inhibition in vivo at 10 mg/kg [1, 4] [%] | inhibition in vivo at 20 mg/kg ([1]; orally, rats, 3 hours) [%] | anti-inflammatory effect (inhibition percentage of carrageenin edema) [1, 3] | analgetic effect ED50, 95% C.L. ([2]; only the 95% confidential limits are printed) [mg/kg] | inhibition in vivo at 10 mg/kg ([1]; 3 h) [%] | inhibition in vivo at 50 mg/kg ([1]; 3 h) [%]
O=c1c2cccnc2n(-c2cccc([N+](=O)[O-])c2)c(=O)n1CCO [Compound 18, 1-(m-nitrophenyl)-3-(2-hydroxyethyl)pyrido[2,3-d] pyrimidine-2,4(1H,3H)-dione] | 31 to 45 | 31 to 45 | 0.42 | > 1000 | > 2000 |  |  |  |  |  | 
CC(=O)OCCn1c(=O)c2cccnc2n(-c2cccc([N+](=O)[O-])c2)c1=O [Compound 21] | 16 to 30 | 31 to 45 | 0.16 | > 1000 | 2000 |  |  |  |  |  | 
CCOCCn1c(=O)c2cccnc2n(-c2cccc([N+](=O)[O-])c2)c1=O [Compound 23] | 46 to 60 | 31 to 45 | 0.168 | > 1000 |  | 31 to 45 | 46 to 60 |  |  |  | 
CCCn1c(=O)c2cccnc2n(-c2cccc([N+](=O)[O-])c2)c1=O [Compound 4] | 31 to 45 | 46 to 60 | 2.6 | 1000 | > 2000 | 46 to 60 | 46 to 60 |  |  |  | 
Cn1c(=O)c2cccnc2n(-c2cccc([N+](=O)[O-])c2)c1=S [Compound 33, 1-(m-nitrophenyl)-3-methyl-2-thio-4-oxo-1,2,3,4-tetrahydropyrido[2,3-d]pyrimidine] |  |  |  | > 1000 | > 2000 | 46 to 60 |  | + ++ | 0.23 to 1.55 |  | 
O=c1c2cccnc2n(-c2cccc([N+](=O)[O-])c2)c(=O)n1CC(F)(F)F [Compound 16, 1-(m-nitrophenyl)-3-(2,2,2-trifluoroethyl)pyrido[2,3-d]pyrimidine-2,4(1H,3H)-dione] | 46 to 60 | 46 to 60 | 1.28 | > 1000 | > 2000 | 46 to 60 | > 61 |  |  |  | 
CCn1c(=O)c2cccnc2n(-c2cccc([N+](=O)[O-])c2)c1=S [Compound 34] | 46 to 60 |  | ~0.2 | > 1000 | > 2000 | 46 to 60 |  |  |  |  | 
CC(C)=CCn1c(=O)c2cccnc2n(-c2cccc([N+](=O)[O-])c2)c1=O [Compound 10] | > 61 | 46 to 60 | 0.43 |  | > 2000 | 31 to 45 | 31 to 45 |  |  |  | 
CCCn1c(=O)c2cccnc2n(-c2cccc(Br)c2)c1=O [--CH2 CH2 CH3, reference compound] | 46 to 60 | > 61 | 20 | > 1000 |  | 46 to 60 | 31 to 45 |  |  |  | 
O=c1c2cccnc2n(-c2cccc([N+](=O)[O-])c2)c(=O)n1CC1CC1 [O --CH2] | > 61 | > 61 | 0.12 |  |  | > 61 | > 61 |  |  |  | 
Cn1c(=O)c2cccnc2n(-c2cccc(Cl)c2)c1=O [--CH3, reference compound] | 46 to 60 | 46 to 60 | 7.1 | > 1000 | > 1000 | 31 to 45 | 46 to 60 |  |  |  | 
O=c1c2cccnc2n(-c2cccc([N+](=O)[O-])c2)c(=O)n1Cc1ccccc1 [O --Ch2] | 46 to 60 | > 61 | 1.7 |  |  | 31 to 45 | 46 to 60 |  |  |  | 
CCn1c(=O)c2cccnc2n(-c2cccc([N+](=O)[O-])c2)c1=O [Compound 3, 1-(m-nitrophenyl)-3-ethylpyrido[2,3-d]pyrimidine-2,4(1H,3H)-dione] | > 61 |  | 0.113 |  |  | > 61 | > 61 |  |  |  | 
CN1C(=O)CN=C(c2ccccc2)c2cc(Cl)ccc21 [diazepam, reference compound] |  |  |  |  |  |  |  |  |  | < 15 | 16 to 30
CC(C)Cn1c(=O)c2cccnc2n(-c2cccc([N+](=O)[O-])c2)c1=O [Compound 7] | 31 to 45 | 31 to 45 | 3.1 | 1000 | > 2000 |  | 31 to 45 |  |  |  | 
CC(C)n1c(=O)c2cccnc2n(-c2cccc([N+](=O)[O-])c2)c1=O [Compound 5] | 46 to 60 | > 61 | 2.15 | > 1000 |  | 46 to 60 | 46 to 60 |  |  |  | 
C=CCn1c(=O)c2cccnc2n(-c2cccc([N+](=O)[O-])c2)c1=O [Compound 9, 1-(m-nitrophenyl)-3-allylpyrido[2,3-d]pyrimidine-2,4(1H,3H)-dione] | > 61 | > 61 | 2.6 |  | > 2000 | > 61 | 46 to 60 |  |  |  | 
Cn1c(=O)c2cccnc2n(-c2cccc([N+](=O)[O-])c2)c1=O [Compound 2, 1-(m-nitrophenyl)-3-methylpyrido[2,3-d]pyrimidine-2,4(1H,3H)-dione] | > 61 | > 61 | 0.175 |  |  | 46 to 60 | 46 to 60 |  |  |  | 
C#CCn1c(=O)c2cccnc2n(-c2cccc([N+](=O)[O-])c2)c1=O [Compound 12] | 46 to 60 | > 61 | 1.15 | > 1000 | > 2000 | 46 to 60 | 46 to 60 |  |  |  | 
O=c1c2cccnc2n(-c2cccc([N+](=O)[O-])c2)c(=S)n1CC(F)(F)F [Compound 39] | 46 to 60 |  | 0.23 | > 1000 | > 2000 | > 61 |  |  |  |  | 
O=c1c2cccnc2n(-c2cccc([N+](=O)[O-])c2)c(=O)n1CCCO [Compound 19] | 46 to 60 | > 61 | ~1 | > 1000 | > 2000 | 31 to 45 | 46 to 60 |  |  |  | 
CCCCC1C(=O)N(c2ccccc2)N(c2ccccc2)C1=O [phenylbutazone, reference compound] | 31 to 45 |  | 290 |  |  | < 15 |  |  |  |  | 
O=c1c2cccnc2n(-c2cccc([N+](=O)[O-])c2)c(=O)n1CCc1ccccc1 [Compound 31] |  | < 15 | > 100 | > 1000 | > 2000 |  |  |  |  |  | 
O=c1c2cccnc2n(-c2cccc([N+](=O)[O-])c2)c(=O)n1CCF [Compound 15] | > 61 | 46 to 60 | ~0.01 |  | 2000 | > 61 | 46 to 60 |  |  |  | 
CCn1c(=O)c2cccnc2n(-c2cccc(C(F)(F)F)c2)c1=O [--C2 H5, reference compound] | > 61 | > 61 | 10 | 600 | 665 | 46 to 60 | 46 to 60 |  |  |  | 
CCCn1c(=O)c2cccnc2n(-c2cccc([N+](=O)[O-])c2)c1=S [Compound 35] | 16 to 30 |  | ~1000 | > 1000 | > 2000 | 16 to 30 |  |  |  |  | 
O=C(O)c1ccccc1Nc1cccc(C(F)(F)F)c1 [flufenamic acid, reference compound] | 16 to 30 |  | 180 | 300 to 1000 |  | < 15 |  |  |  |  | 
O=C(Cn1c(=O)c2cccnc2n(-c2cccc([N+](=O)[O-])c2)c1=O)c1ccc(Cl)cc1 [O --CH2 CO] |  | < 15 | > 100 | > 1000 | > 2000 |  |  |  |  |  | 
